Experimental data reported in patent US12268694B2, “Combination pharmaceutical agents as RSV inhibitors” (Enanta Pharmaceuticals, Inc., priority 2017, dated 2025).

These compounds were tested on genotype A, "Long" strain RSV (assay: RSV-A assay: CPE protection in HEp-2 cells, ATPlite readout). Conditions: HEp-2 cells, RSV-A Long strain, ATPlite readout; read-out: Human RSV-A (“Long” strain) EC50.
Type: cell-based, human respiratory syncytial virus
How it was run: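 EC50 derives from ATPlite luminescence after 5-day culture of RSV Long-infected (MOI 0.1) HEp-2 cells, seeded 8,000/well, exposed to duplicate 2-fold compound series. CC50 comes from an identical plate receiving medium instead of virus.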

Going from `O=C1Nc2c(F)cccc2C(c2ccccc2)=N[C@@H]1Nc1nnc(-c2ncc(C(F)(F)F)cc2N2CCOCC2)o1` [Example 360] to `COC[C@@H]1C[C@H]1c1sc(C(F)(F)F)nc1-c1nnc(N[C@H]2N=C(c3ccccc3)c3ccccc3NC2=O)o1` [Example 394], the EC50 rises from under 400 nM to over 800 nM. The first is the more potent here.

Same assay, conditions: human respiratory syncytial virus, HEp-2, read-out: Human RSV-A (“Long” strain) EC50

`CN(CC(C)(C)O)c1cc(C(F)(F)F)cnc1-c1nnc(N[C@H]2N=C(c3ccccc3)c3ccccc3NC2=O)o1` [Example 308] and `N#CCNc1cc(C(F)(F)F)cnc1-c1nnc(N[C@H]2N=C(c3ccccc3)c3ccccc3NC2=O)o1` [Example 331] cannot be ordered by EC50: over 800 nM for the first, over 800 nM for the second.

`N#Cc1ccc(-c2nnc(N[C@H]3N=C(c4ccccc4)c4ccccc4NC3=O)o2)c(-c2ccsc2)c1` [Example 309] and `N#Cc1ccc(-c2nnc(N[C@H]3N=C(c4ccccc4)c4ccccc4NC3=O)o2)c(-c2ccoc2)c1` [Example 319] cannot be ordered by EC50: over 800 nM for the first, over 800 nM for the second.

`COCCn1nccc1-c1nnc(N[C@H]2N=C(c3ccccc3)c3ccccc3NC2=O)o1` [Example 310] and `O=C1Nc2ccccc2C(c2ccccc2)=N[C@@H]1Nc1nnc(-c2ccnn2-c2ccccc2)o1` [Example 349] cannot be ordered by EC50: over 800 nM for the first, over 800 nM for the second.

`C#Cc1cnc(-c2nnc(N[C@H]3N=C(c4ccccc4)c4ccccc4NC3=O)o2)c(N2CCOCC2)c1` [Example 311] and `N#Cc1cnc(-c2nnc(N[C@H]3N=C(c4ccccc4)c4ccccc4NC3=O)o2)c(N2CCOCC2)c1` [Example 325] cannot be ordered by EC50: under 400 nM for the first, under 400 nM for the second.

Compared with `O=C1Nc2ccccc2C(c2ccccc2)=N[C@@H]1Nc1nnc(-c2ncc(C3=CCCCC3)cc2N2CCOCC2)o1` [Example 312], `O=C1Nc2ccccc2C(c2ccccc2)=N[C@@H]1Nc1nnc(-c2ncc(N3CCCC3)cc2N2CCOCC2)o1` [Example 314] is lower in EC50: 400 to 800 nM for the first, under 400 nM for the second. The second is the more potent here.

`O=C1Nc2ccccc2C(c2ccccc2)=N[C@@H]1Nc1nnc(-c2ncc(C3CCCCC3)cc2N2CCOCC2)o1` [Example 313] and `O=C1Nc2ccccc2C(c2ccccc2)=N[C@@H]1Nc1nnc(-c2nc(C3CC3)ccc2N2CCOCC2)o1` [Example 318] cannot be ordered by EC50: under 400 nM for the first, under 400 nM for the second.

`Cn1cc(-c2cc(C#N)ccc2-c2nnc(N[C@H]3N=C(c4ccccc4)c4ccccc4NC3=O)o2)ccc1=O` [Example 315] and `Cc1noc(C)c1-c1cc(C#N)ccc1-c1nnc(N[C@H]2N=C(c3ccccc3)c3ccccc3NC2=O)o1` [Example 320] cannot be ordered by EC50: over 800 nM for the first, over 800 nM for the second.

Going from `O=C1Nc2ccccc2C(c2ccccc2)=N[C@@H]1Nc1nnc(-c2ncc3ccccc3c2N2CCOCC2)o1` [Example 316] to `COc1ccccc1-c1nc(-c2nnc(N[C@H]3N=C(c4ccccc4)c4ccccc4NC3=O)o2)c(N2CCOCC2)s1` [Example 342], the EC50 falls from over 800 nM to under 400 nM. The second is the more potent here.

`O=C1Nc2ccccc2C(c2ccccc2)=N[C@@H]1Nc1nnc(-c2ccc(N3CCCC3)cc2N2CCOCC2)o1` [Example 317] and `Cc1cc(-c2nnc(N[C@H]3N=C(c4ccccc4)c4ccccc4NC3=O)o2)c(N2CCOCC2)s1` [Example 330] cannot be ordered by EC50: under 400 nM for the first, under 400 nM for the second.

First: O=C1Nc2ccccc2C(c2ccccc2)=N[C@@H]1Nc1nnc(-c2ncc(C3CC3)cc2N2CC3CCC(C2)O3)o1 [Example 321]
Second: C[C@@H]1CN(c2cc(C#N)cnc2-c2nnc(N[C@H]3N=C(c4ccccc4)c4ccccc4NC3=O)o2)CCO1 [Example 326]
The EC50 of the first is lower: under 400 nM for the first, 400 to 800 nM for the second.

`N#Cc1cc(N2CCOCC2)c(-c2nnc(N[C@H]3N=C(c4ccccc4)c4ccccc4NC3=O)o2)s1` [Example 323] and `N#Cc1ccc(N2CCOCC2)c(-c2nnc(N[C@H]3N=C(c4ccccc4)c4ccccc4NC3=O)o2)n1` [Example 324] cannot be ordered by EC50: under 400 nM for the first, under 400 nM for the second.

Compared with `CN1CCN(c2cc(C(F)(F)F)cnc2-c2nnc(N[C@H]3N=C(c4ccccc4)c4ccccc4NC3=O)o2)CC1` [Example 327], `O=C1Nc2ccccc2C(c2ccccc2)=N[C@@H]1Nc1nnc(-c2ncc(C(F)(F)F)cc2N2CCC(O)CC2)o1` [Example 328] is higher in EC50: 400 to 800 nM for the first, over 800 nM for the second. The first is the more potent here.

First: C[C@H]1CN(c2cc(C#N)cnc2-c2nnc(N[C@H]3N=C(c4ccccc4)c4ccccc4NC3=O)o2)CCO1 [Example 329]
Second: N#Cc1cnc(-c2nnc(N[C@H]3N=C(c4ccccc4)c4ccccc4NC3=O)o2)c(N2C3CCC2COC3)c1 [Example 333]
The EC50 of the first is lower: under 400 nM for the first, 400 to 800 nM for the second.

First: CS(=O)(=O)c1cnc(-c2nnc(N[C@H]3N=C(c4ccccc4)c4ccccc4NC3=O)o2)c(N2CCOCC2)c1 [Example 332]
Second: Cc1nc(-c2nnc(N[C@H]3N=C(c4ccccc4)c4ccccc4NC3=O)o2)c(N2CCOCC2)o1 [Example 337]
The EC50 of the first is higher: over 800 nM for the first, under 400 nM for the second.

First: COCCNc1sc(C)nc1-c1nnc(N[C@H]2N=C(c3ccccc3)c3ccccc3NC2=O)o1 [Example 335]
Second: Cc1nc(-c2nnc(N[C@H]3N=C(c4ccccc4)c4ccccc4NC3=O)o2)c(Cl)s1 [Example 344]
The EC50 of the first is lower: under 400 nM for the first, over 800 nM for the second.

Going from `Cc1nc(-c2nnc(N[C@H]3N=C(c4ccccc4)c4ccccc4NC3=O)o2)cs1` [Example 343] to `Cc1nc(-c2nnc(N[C@H]3N=C(c4ccccc4)c4ccccc4NC3=O)o2)c(C2=CCOCC2)s1` [Example 345, (S)-3-((5-(5-(3,6-dihydro-2H-pyran-4-yl)-2-methylthiazol-4-yl)-1,3,4-oxadiazol-2-yl)amino)-5-phenyl-1,3-dihydro-2H-benzo[e][1,4]diazepin-2-one], the EC50 falls from over 800 nM to under 400 nM.

Going from `Cc1nc(-c2nnc(N[C@H]3N=C(c4ccccc4)c4ccccc4NC3=O)o2)c(C2CCOCC2)s1` [Example 346, (S)-3-((5-(2-methyl-5-(tetrahydro-2H-pyran-4-yl)thiazol-4-yl)-1,3,4-oxadiazol-2-yl)amino)-5-phenyl-1,3-dihydro-2H-benzo[e][1,4]diazepin-2-one] to `O=C1Nc2ccccc2C(c2ccccc2)=NC1Nc1nnc(-c2ccccc2C2CCOCC2)o1` (stereo not shown) [Example 354], the EC50 rises from under 400 nM to over 800 nM.

Going from `O=C1Nc2ccccc2C(c2ccccc2)=N[C@@H]1Nc1nnc(-c2ncsc2C2=CCOCC2)o1` [Example 347] to `O=C1Nc2ccccc2C(c2ccccc2)=NC1Nc1nnc(-c2ccccc2C2=CCOCC2)o1` (stereo not shown) [Example 353, 3-((5-(2-(3,6-dihydro-2H-pyran-4-yl)phenyl)-1,3,4-oxadiazol-2-yl)amino)-5-phenyl-1,3-dihydro-2H-benzo[e][1,4]diazepin-2-one], the EC50 rises from under 400 nM to over 800 nM. The first is the more potent here.

`O=C1Nc2ccccc2C(c2ccccc2)=N[C@@H]1Nc1nnc(-c2occc2N2CCOCC2)o1` [Example 348] and `O=C1Nc2ccccc2C(c2ccccc2)=NC1Nc1nnc(-c2nc(Br)sc2N2CCOCC2)o1` (stereo not shown) [Example 400] cannot be ordered by EC50: under 400 nM for the first, under 400 nM for the second.

First: O=C1Nc2ccccc2C(c2ccccc2)=N[C@@H]1Nc1nnc(-c2cnn(-c3ccccc3)c2)o1 [Example 350]
Second: O=C1Nc2ccccc2C(c2ccccc2)=NC1Nc1ncc(-c2ccccc2)cn1 (stereo not shown) [Example 371]
The EC50 of the first is lower: 400 to 800 nM for the first, over 800 nM for the second. The first is the more potent here.

First: O=C1Nc2c(F)cccc2C(c2ccccc2)=N[C@H]1Nc1nnc(-c2ccccc2N2CCOCC2)o1 [Example 355b]
Second: O=C1Nc2c(F)cccc2C(c2ccccc2)=NC1Nc1nnc(-c2ccc(N3CCOCC3)cc2)o1 (stereo not shown) [Example 356]
The EC50 of the first is higher: over 800 nM for the first, 400 to 800 nM for the second. The second is the more potent here.

`N#Cc1cnc(-c2nnc(N[C@H]3N=C(c4ccccc4)c4cccc(F)c4NC3=O)o2)c(N2CCOCC2)c1` [Example 361] and `O=C1Nc2ccccc2C(c2ccccc2)=N[C@@H]1Nc1nnc(-c2nc(-c3ccc(F)cn3)sc2N2CCOCC2)o1` [Example 389] cannot be ordered by EC50: under 400 nM for the first, under 400 nM for the second.

First: O=C1Nc2ccccc2C(c2ccccc2)=NC1Nc1nnc(-c2ccc(F)cc2)[nH]1 (stereo not shown) [Example 363]
Second: N#Cc1ccc(-c2nnc(NC3N=C(c4ccccc4)c4ccccc4NC3=O)[nH]2)cc1 (stereo not shown) [Example 365]
The EC50 of the first is higher: over 800 nM for the first, 400 to 800 nM for the second. The second is the more potent here.

`O=C1Nc2ccccc2C(c2ccccc2)=NC1Nc1nnc(-c2ccncc2)[nH]1` (stereo not shown) [Example 366] and `O=C1Nc2ccccc2C(c2ccccc2)=NC1Nc1ccc(-c2ccncc2)nn1` (stereo not shown) [Example 375] cannot be ordered by EC50: over 800 nM for the first, over 800 nM for the second.

`O=C1Nc2ccccc2C(c2ccccc2)=NC1Nc1nnc(-c2ccccc2N2CCOCC2)[nH]1` (stereo not shown) [Example 367] and `O=C1Nc2ccccc2C(c2ccccc2)=NC1Nc1ccc(-c2ccccc2N2CCOCC2)nn1` (stereo not shown) [Example 378] cannot be ordered by EC50: over 800 nM for the first, over 800 nM for the second.

`O=C1Nc2ccccc2C(c2ccccc2)=NC1Nc1ncc(-c2ccc(F)cc2)o1` (stereo not shown) [Example 369] and `O=C1Nc2ccccc2C(c2ccccc2)=NC1Nc1ncc(-c2ccc(Br)cc2)o1` (stereo not shown) [Example 370] cannot be ordered by EC50: over 800 nM for the first, over 800 nM for the second.

`O=C1Nc2ccccc2C(c2ccccc2)=NC1Nc1nnc(C2CC2)[nH]1` (stereo not shown) [Example 372] and `O=C1Nc2ccccc2C(c2ccccc2)=NC1Nc1ccc(-c2ccc(F)cc2)nn1` (stereo not shown) [Example 374] cannot be ordered by EC50: over 800 nM for the first, over 800 nM for the second.

`O=C1Nc2ccccc2C(c2ccccc2)=NC1Nc1cnc(-c2ccc(F)cc2)cn1` (stereo not shown) [Example 373] and `COc1ccc(-c2ccc(NC3N=C(c4ccccc4)c4ccccc4NC3=O)nn2)cc1` (stereo not shown) [Example 376] cannot be ordered by EC50: over 800 nM for the first, over 800 nM for the second.

Compared with `O=C1Nc2ccccc2C(c2ccccc2F)=NC1Nc1nnc(-c2ccc(F)cc2)o1` (stereo not shown) [Example 379], `O=C1Nc2ccccc2C(c2cccc(F)c2)=NC1Nc1nnc(-c2ccc(F)cc2)o1` (stereo not shown) [Example 380] is lower in EC50: over 800 nM for the first, 400 to 800 nM for the second.

`N#Cc1cccc(C2=NC(Nc3nnc(-c4ccc(F)cc4)o3)C(=O)Nc3ccccc32)c1` (stereo not shown) [Example 381] and `O=C1Nc2ccccc2C(c2ccc(F)cc2)=NC1Nc1nnc(-c2ccc(F)cc2)o1` (stereo not shown) [Example 382] cannot be ordered by EC50: over 800 nM for the first, over 800 nM for the second.

`O=C1Nc2ccccc2C(c2ccccc2)=N[C@@H]1Nc1nnc(-c2cc(C(F)(F)F)sc2N2CCOCC2)o1` [Example 383] and `O=C1Nc2ccccc2C(c2ccccc2)=N[C@@H]1Nc1nnc(-c2cc(C3CC3)sc2N2CCOCC2)o1` [Example 384] cannot be ordered by EC50: under 400 nM for the first, under 400 nM for the second.

`O=C1Nc2ccccc2C(c2ccccc2)=N[C@@H]1Nc1nnc(-c2nc(-c3ccc(C(F)(F)F)nc3)sc2N2CCOCC2)o1` [Example 390] and `Cn1cc(-c2nc(-c3nnc(N[C@H]4N=C(c5ccccc5)c5ccccc5NC4=O)o3)c(N3CCOCC3)s2)cn1` [Example 399] cannot be ordered by EC50: under 400 nM for the first, under 400 nM for the second.

`COCCCc1sc(C(F)(F)F)nc1-c1nnc(N[C@H]2N=C(c3ccccc3)c3ccccc3NC2=O)o1` [Example 396] gave an EC50 of over 800 nM.
